# Patent US9169205B2, “Pyrrolidine derivatives, pharmaceutical compositions and uses thereof” (Boehringer Ingelheim International GmbH, priority 2012, dated 2015)
# pIC50: −log10 of the molar value.
# Molecular target: human ACC2 (Homo sapiens (Human), UniProt O00763)
# Test: ACC2 assay (spectrophotometric 384 well assay, NADH-linked kinetic method)
# Format: biochemical
# Settings: hACC2 construct lacking 128 N-terminal amino acids, 25° C., 340 nm
# Method: Spectrophotometric 384 Well Assay
# Malonyl CoA formation by acetyl CoA carboxylases is stoichometrically linked to the consumption of ATP. ACC2 activity is measured in a NADH-linked kinetic method measuring ADP generated during the ACC reaction using a coupled lactate dehydrogenase/pyruvate kinase reaction.
# The protein is then expressed in insect cells using a baculoviral expression system. Protein purification is performed by anion exchange.
# All compounds are dissolved in dimethyl sulfoxide (DMSO) to a concentration of 10 mM.
# The enzymatic reaction is then started by addition of a mixture of NADH, acetyl Coenzyme A (both 200 μM f.c.) and ATP (500 uM f.c.). The decrease of the optical density (slope S) is then determined at 25° C. at a wavelength of 340 nm over 15 minutes in a spectrophotometric reader.
# Each assay microtiter plate contains wells with vehicle instead of compound as controls for the non-inhibited enzyme (100% CTL; ‘HIGH’) and wells without acetyl-CoA as controls for non-specific NADH degradation (0% CTL; ‘LOW’).
# human ACC2, sequence (O00763 129-2458): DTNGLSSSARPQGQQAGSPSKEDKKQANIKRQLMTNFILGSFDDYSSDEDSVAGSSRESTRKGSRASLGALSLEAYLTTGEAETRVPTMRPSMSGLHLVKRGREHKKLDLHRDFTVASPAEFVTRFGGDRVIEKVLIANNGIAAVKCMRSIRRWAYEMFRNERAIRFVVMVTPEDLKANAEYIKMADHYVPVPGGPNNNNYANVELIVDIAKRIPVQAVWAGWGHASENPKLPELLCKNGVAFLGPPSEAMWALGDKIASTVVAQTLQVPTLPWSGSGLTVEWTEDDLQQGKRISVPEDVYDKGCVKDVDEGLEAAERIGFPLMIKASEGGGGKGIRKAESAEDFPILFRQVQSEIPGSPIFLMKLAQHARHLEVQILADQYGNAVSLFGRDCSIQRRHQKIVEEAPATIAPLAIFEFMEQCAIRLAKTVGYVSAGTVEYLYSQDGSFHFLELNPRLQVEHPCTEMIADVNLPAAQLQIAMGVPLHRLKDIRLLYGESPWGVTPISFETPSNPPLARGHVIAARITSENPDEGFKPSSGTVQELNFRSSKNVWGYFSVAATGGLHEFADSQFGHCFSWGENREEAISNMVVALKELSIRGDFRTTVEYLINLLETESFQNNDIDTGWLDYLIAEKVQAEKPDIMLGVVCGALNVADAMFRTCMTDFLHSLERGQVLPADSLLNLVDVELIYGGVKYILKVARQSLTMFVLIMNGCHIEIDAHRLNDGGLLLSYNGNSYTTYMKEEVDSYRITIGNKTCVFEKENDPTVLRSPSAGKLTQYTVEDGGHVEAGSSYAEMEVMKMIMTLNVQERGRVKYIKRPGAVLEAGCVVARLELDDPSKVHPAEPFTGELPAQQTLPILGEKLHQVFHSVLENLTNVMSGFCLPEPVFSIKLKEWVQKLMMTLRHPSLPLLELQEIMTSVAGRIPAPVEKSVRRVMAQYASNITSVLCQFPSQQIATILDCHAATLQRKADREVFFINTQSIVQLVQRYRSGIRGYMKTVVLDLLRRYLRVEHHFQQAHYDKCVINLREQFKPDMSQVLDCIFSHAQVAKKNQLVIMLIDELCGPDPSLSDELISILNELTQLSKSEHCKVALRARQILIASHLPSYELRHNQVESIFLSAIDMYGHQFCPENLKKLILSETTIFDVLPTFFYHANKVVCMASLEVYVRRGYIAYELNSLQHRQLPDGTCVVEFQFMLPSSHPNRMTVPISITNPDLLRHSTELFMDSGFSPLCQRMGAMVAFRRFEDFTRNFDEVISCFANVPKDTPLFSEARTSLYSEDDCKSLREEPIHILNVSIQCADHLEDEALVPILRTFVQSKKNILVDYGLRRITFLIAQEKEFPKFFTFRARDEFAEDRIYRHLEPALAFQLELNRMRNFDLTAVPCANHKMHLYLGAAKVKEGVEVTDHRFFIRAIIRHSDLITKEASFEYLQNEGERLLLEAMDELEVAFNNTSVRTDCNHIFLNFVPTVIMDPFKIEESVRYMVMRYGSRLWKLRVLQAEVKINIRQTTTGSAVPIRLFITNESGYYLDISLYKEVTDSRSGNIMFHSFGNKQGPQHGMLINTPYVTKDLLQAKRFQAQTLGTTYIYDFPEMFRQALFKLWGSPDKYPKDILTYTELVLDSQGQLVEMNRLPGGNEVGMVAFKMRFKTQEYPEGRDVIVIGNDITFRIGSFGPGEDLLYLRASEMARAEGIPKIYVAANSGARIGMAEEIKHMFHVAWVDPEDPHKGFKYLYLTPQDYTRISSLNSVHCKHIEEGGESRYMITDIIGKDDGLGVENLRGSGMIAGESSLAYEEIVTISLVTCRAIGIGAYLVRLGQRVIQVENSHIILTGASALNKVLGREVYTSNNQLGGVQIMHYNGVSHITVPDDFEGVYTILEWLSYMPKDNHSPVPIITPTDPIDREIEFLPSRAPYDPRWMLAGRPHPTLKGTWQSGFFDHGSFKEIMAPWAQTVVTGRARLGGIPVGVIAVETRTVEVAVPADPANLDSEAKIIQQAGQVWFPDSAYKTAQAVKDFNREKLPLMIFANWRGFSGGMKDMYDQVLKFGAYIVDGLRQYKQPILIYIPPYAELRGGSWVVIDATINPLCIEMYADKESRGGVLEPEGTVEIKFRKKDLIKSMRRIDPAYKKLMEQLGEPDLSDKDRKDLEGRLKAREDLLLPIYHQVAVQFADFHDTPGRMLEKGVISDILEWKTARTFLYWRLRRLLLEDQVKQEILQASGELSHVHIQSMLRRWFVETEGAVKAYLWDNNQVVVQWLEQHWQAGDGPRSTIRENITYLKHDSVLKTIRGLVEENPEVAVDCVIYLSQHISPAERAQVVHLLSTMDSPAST
row,pIC50,SMILES
1,6.25,Cc1cc(OC2CC2)ccc1N1CCC(Oc2ccc([C@H](C)NC(=O)N(C)C)cc2)C1 (stereo partly shown) [Example 1.68]
2,6.81,CCCOc1ccc(N2CCC(Oc3ccc([C@H](C)NC(C)=O)cc3)C2)c(C#N)c1 (stereo partly shown) [Example 1.13]
3,6.97,CCOc1ccc(N2CCC(Oc3ccc([C@H](C)NC(C)=O)cc3)C2)c(C)c1 (stereo partly shown) [Example 1.87]
4,6.20,CC(=O)N[C@@H](C)c1ccc(OC2CCN(c3ccc(OCC(F)(F)C(F)F)cc3)C2)cc1 (stereo partly shown) [Example 4.7]
5,7.19,CC(=O)N[C@@H](C)c1ccc(OC2CCN(c3ccc(OCC4CC4(F)F)c(F)c3)C2)cc1 (stereo partly shown) [Example 1.98]
6,6.64,CC(=O)N[C@@H](C)c1ccc(OC2CCN(c3ccc(OC4CC4)cc3C#N)C2)cc1 (stereo partly shown) [Example 1.73]
7,6.11,CC(=O)N[C@@H](C)c1ccc(O[C@H]2CCN(c3ccc(OC4CC4)cc3)C2)cc1 [Example 1.49]
8,6.47,CC(=O)N[C@@H](C)c1ccc(OC2CCN(c3ccc4c(c3F)OCCO4)C2)cc1 (stereo partly shown) [Example 1.47]
9,6.29,CCOc1cccc(N2CC[C@H](Oc3ccc([C@H](C)NC(C)=O)cc3)C2)c1 [Example 1.4]
10,6.04,CC(=O)N[C@@H](C)c1ccc(OC2CCN(c3cccc(F)c3C)C2)cc1 (stereo partly shown) [Example 1.31]
11,7.08,CC(=O)N[C@@H](C)c1ccc(OC2CCN(c3ccc4c(c3)OCCCO4)C2)cc1 (stereo partly shown) [Example 1.23]
12,6.05,CC(=O)N[C@@H](C)c1ccc(OC2CCN(c3ccc(F)cc3F)C2)cc1 (stereo partly shown) [Example 1.35]
13,6.52,CC(=O)N[C@@H](C)c1ccc(OC2CCN(c3ccc(F)c(Cl)c3)C2)cc1 (stereo partly shown) [Example 1.54]
14,7.40,CC(=O)N[C@@H](C)c1ccc(OC2CCN(c3ccc(OCCC(F)F)cc3)C2)cc1 (stereo partly shown) [Example 1.90]
15,6.25,COCCOc1ccc(N2CCC(Oc3ccc([C@H](C)NC(C)=O)cc3)C2)cc1 (stereo partly shown) [Example 4.4]
16,7.22,CCCOc1ccc(N2CCC(Oc3ccc([C@H](C)NC(C)=O)cc3)C2)c(Cl)c1 (stereo partly shown) [Example 1.29]
17,7.01,CC(=O)N[C@@H](C)c1ccc(OC2CCN(c3cc4c(cc3F)OCCCO4)C2)cc1 (stereo partly shown) [Example 1.36]
18,6.46,CC(=O)N[C@@H](C)c1ccc(OC2CCN(c3ccc4c(c3C)OCCO4)C2)cc1 (stereo partly shown) [Example 1.83]
19,6.36,CC(=O)N[C@@H](C)c1ccc(OC2CCN(c3ccccc3)C2)cc1 (stereo partly shown) [Example 1.44]
20,6.90,CC(=O)N[C@@H](C)c1ccc(OC2CCN(c3ccc(C4CCC4)cc3)C2)cc1 (stereo partly shown) [Example 1.33]
21,6.65,CC(=O)N[C@@H](C)c1ccc(OC2CCN(c3ccc(OCC(C)(C)F)cc3)C2)cc1 (stereo partly shown) [Example 1.89]
22,7.19,CCCOc1ccc(N2CCC(Oc3ccc([C@H](C)NC(C)=O)cc3)C2)c(C)c1 (stereo partly shown) [Example 1.86]
23,6.77,CCC(C)Oc1ccc(N2CCC(Oc3ccc([C@H](C)NC(C)=O)cc3)C2)cc1 (stereo partly shown) [Example 4.3]
24,7.27,"CC(=O)N[C@@H](C)c1ccc(O[C@@H]2CCN(c3ccc(OCC4CC4)cc3)C2)cc1 [Example 1.1, N—((S)-1-(4-((R)-1-(4-(Cyclopropylmethoxy)phenyl)pyrrolidin-3-yloxy)phenyl)ethyl)-acetamide]"
25,6.45,CC(=O)N[C@@H](C)c1ccc(OC2CCN(c3cc(Cl)ccc3Cl)C2)cc1 (stereo partly shown) [Example 1.58]
26,7.35,CC(=O)N[C@@H](C)c1ccc(OC2CCN(c3ccc(OCC4CC4(F)F)cc3F)C2)cc1 (stereo partly shown) [Example 1.41]
27,7.28,CC(=O)N[C@@H](C)c1ccc(OC2CCN(c3ccc(OCCCF)cc3)C2)cc1 (stereo partly shown) [Example 1.70]
28,6.65,CC(=O)N[C@@H](C)c1ccc(OC2CCN(c3cc4c(cc3F)OCCO4)C2)cc1 (stereo partly shown) [Example 1.46]
29,6.44,CC(=O)N[C@@H](C)c1ccc(OC2CCN(c3ccc(OCC(F)F)cc3)C2)cc1 (stereo partly shown) [Example 4.6]

# The remaining lines, values behind:
row,SMILES,pIC50
1,C[C@H](NC(=O)c1cnn(C)c1N)c1ccc(O[C@@H]2CCN(c3ccc(OCC4CC4)cc3)C2)cc1 [Example 2.50],7.19
2,Cc1cc(C(=O)N[C@@H](C)c2ccc(O[C@@H]3CCN(c4ccc(OCC5CC5)cc4)C3)cc2)[nH]n1 [Example 2.8],6.48
3,CCNC(=O)N[C@@H](C)c1ccc(OC2CCN(c3ccc(OCC4CC4)cc3)C2)cc1 (stereo partly shown) [Example 3.2],7.26
4,CO[C@H]1CN(c2ccc(OCC3CC3)cc2)CC1Oc1ccc([C@H](C)NC(C)=O)cc1 (stereo partly shown) [Example 1.45],6.97
5,C[C@H](NC(=O)C(F)F)c1ccc(O[C@@H]2CCN(c3ccc(OCC4CC4)cc3)C2)cc1 [Example 2.25],7.42
6,Cc1cc(CC(=O)N[C@@H](C)c2ccc(O[C@@H]3CCN(c4ccc(OCC5CC5)cc4)C3)cc2)on1 [Example 2.9],6.86
7,C[C@H](NC(=O)Cc1cncnc1)c1ccc(O[C@@H]2CCN(c3ccc(OCC4CC4)cc3)C2)cc1 [Example 2.7],6.92
8,CCOc1ccc(N2CC[C@@H](Oc3ccc([C@H](C)NC(=O)c4sc(NC(=O)COCc5ccccc5)nc4C)cc3)C2)cc1 [Example 2.54],7.35
9,CC(=O)NC(C)c1ccc(OC2CCN(c3ccc(OCC4CC4)cc3)C2)cc1F (stereo not shown) [Example 7.2],6.12
10,C[C@H](NC(=O)c1cnn2ccn(C)c12)c1ccc(O[C@@H]2CCN(c3ccc(OCC4CC4)cc3)C2)cc1 [Example 2.49],6.05
11,C[C@H](NC(=O)c1cnn(C)c1)c1ccc(O[C@@H]2CCN(c3ccc(OCC4CC4)cc3)C2)cc1 [Example 2.11],6.88
12,C[C@H](NC(=O)N1CCOCC1)c1ccc(OC2CCN(c3ccc(OCC4CC4)cc3)C2)cc1 (stereo partly shown) [Example 3.5],6.70
13,Cc1cc(C(=O)N[C@@H](C)c2ccc(O[C@@H]3CCN(c4ccc(OCC5CC5)cc4)C3)cc2)no1 [Example 2.15],6.50
14,CC(C#N)C(=O)N[C@@H](C)c1ccc(O[C@@H]2CCN(c3ccc(OCC4CC4)cc3)C2)cc1 (stereo partly shown) [Example 2.23],7.25
15,CC(C)Oc1ccc(N2CCC(Oc3ccc([C@H](C)NC(=O)N(C)C)cc3)C2)cc1 (stereo partly shown) [Example 1.65],6.06
16,C[C@H](NC(=O)C(C)(C)C#N)c1ccc(O[C@@H]2CCN(c3ccc(OCC4CC4)cc3)C2)cc1 [Example 2.39],6.33
17,COc1ccccc1C(=O)N[C@@H](C)c1ccc(O[C@@H]2CCN(c3ccc(OCC4CC4)cc3)C2)cc1 [Example 2.5],6.10
18,C[C@H](NC(=O)Cc1cc[nH]c1)c1ccc(O[C@@H]2CCN(c3ccc(OCC4CC4)cc3)C2)cc1 [Example 2.12],6.40
19,CCC(=O)N[C@@H](C)c1ccc(O[C@@H]2CCN(c3ccc(OCC4CC4)cc3)C2)cc1 [Example 2.24],7.40

row,SMILES,pIC50
1,Cc1cc(OC2CC2)ccc1N1CC[C@@H](Oc2ccc([C@H](C)NC(=O)CO)cc2)C1 [Example 2.58],6.13
2,CC(=O)Nc1cccc(C(=O)N[C@@H](C)c2ccc(O[C@@H]3CCN(c4ccc(OCC5CC5)cc4)C3)cc2)c1C [Example 2.4],6.29
3,COc1cc(C(=O)N[C@@H](C)c2ccc(O[C@@H]3CCN(c4ccc(OCC5CC5)cc4)C3)cc2)on1 [Example 2.17],6.46
4,C[C@H](NC(=O)c1ccnnc1)c1ccc(O[C@@H]2CCN(c3ccc(OCC4CC4)cc3)C2)cc1 [Example 2.36],6.70
5,CCOc1ccc(N2CC[C@@H](Oc3ccc([C@H](C)NC(=O)c4sc(NC(=O)COC(C)=O)nc4C)cc3)C2)cc1 [Example 2.55],7.28
6,Cc1oncc1C(=O)N[C@@H](C)c1ccc(O[C@@H]2CCN(c3ccc(OCC4CC4)cc3)C2)cc1 [Example 2.21],7.35
7,C[C@H](NC(=O)c1cn(C)nc1C#N)c1ccc(O[C@@H]2CCN(c3ccc(OCC4CC4)cc3)C2)cc1 [Example 2.56],6.38
8,C[C@H](NC(=O)c1cnco1)c1ccc(O[C@@H]2CCN(c3ccc(OCC4CC4)cc3)C2)cc1 [Example 2.22],7.52
9,CCNC(=O)N[C@@H](C)c1ccc(OC2CCN(c3ccc(OC(C)C)cc3)C2)cc1 (stereo partly shown) [Example 3.10],6.66
10,"C[C@H](NC(=O)N(C)C)c1ccc(O[C@@H]2CCN(c3ccc(OCC4CC4)cc3)C2)cc1 [Example 3.1, 3-((S)-1-(4-((R)-1-(4-(cyclopropylmethoxy)phenyl)pyrrolidin-3-yloxy)phenyl)ethyl)-1,1-dimethylurea]",7.13
11,Cc1nc(N)sc1C(=O)N[C@@H](C)c1ccc(O[C@@H]2CCN(c3ccc(OCC4CC4)cc3)C2)cc1 [Example 2.40],6.42
12,C[C@H](NC(=O)c1cnn(C(F)F)c1)c1ccc(O[C@@H]2CCN(c3ccc(OCC4CC4)cc3)C2)cc1 [Example 2.46],6.42
13,CC(=O)Nc1nc(C)c(C(=O)N[C@@H](C)c2ccc(OC3CCN(c4ccc(OCC5CC5)cc4)C3)cc2)s1 (stereo partly shown) [Example 2.1],7.40
14,C[C@H](NC(=O)c1cncs1)c1ccc(O[C@@H]2CCN(c3ccc(OCC4CC4)cc3)C2)cc1 [Example 2.38],7.77
15,CC(=O)NC(C)c1ccc(OC2CCN(c3ccc(OCC4CC4)cc3)C2)c(F)c1 (stereo not shown) [Example 7.3],6.70
16,CCC(=O)N[C@@H](C)c1ccc(O[C@@H]2CCN(c3ccc(OC(C)C)cc3)C2)cc1 [Example 2.20],6.11
17,CCN(C)C(=O)N[C@@H](C)c1ccc(OC2CCN(c3ccc(OCC4CC4)cc3)C2)cc1 (stereo partly shown) [Example 3.4],6.78
18,"C[C@H](NC(=O)C1CC1)c1ccc(O[C@@H]2CCN(c3ccc(OCC4CC4)cc3)C2)cc1 [Example 8.1, N—((S)-1-(4-((R)-1-(4-(Cyclopropylmethoxy)phenyl)pyrrolidin-3-yloxy)phenyl)-ethyl)-cyclopropanecarboxamide]",6.43
19,CC(=O)N[C@@H](C)c1ccc(OC2CCN(c3ccc(Oc4cnccn4)cc3)C2)cc1 (stereo partly shown) [Example 1.69],6.36
